Measured values from patent US12281304B2, “Compositions and methods for treating and preventing muscular disorders and dystrophies, steroid side effects, and inflammation” (Children's National Medical Center, priority 2018, dated 2025).

System: miRNAs in diaphragm muscle of mdx mice
Test: TaqMan low-density array (TLDA) miRNA profiling of diaphragm, discovery set (prophylactic mdx trial)
Type: in vivo, mouse
Settings: mdx diaphragm, vs untreated mdx; Pred 5 mg/kg, Vam 15 mg/kg
Excerpt: Archival muscle samples (diaphragm) from two separate preclinical studies were obtained, with each trial showing a significant benefit from both prednisolone and vamorolone drug treatments (23). Prednisolone was used because it is the active form of prednisone, the current DMD standard of care. The first, “discovery set” of diaphragm muscles was from a prophylactic trial design where 2-week old (postnatal day 15) mdx or wild type control mice received oral dosing for 6 weeks with vehicle (cherry syrup), prednisolone (5 mg/kg), or vamorolone (15 mg/kg) as previously reported (23). The second, “validation set” of diaphragm muscles was from an extended trial in older mice where mdx or wild type mice were subjected to treadmill running to unmask mild phenotypes. Mice in this validation set were treated with either vehicle, prednisolone (5 mg/kg) or vamorolone (45 mg/kg) for four months beginning at two months of age (23). At the endpoint of each trial, diaphragm muscles were harvested and frozen in liquid nitrogen-cooled isopentane.
We extracted total RNA from 5 diaphragm muscles per treatment group in the discovery set of samples from 8-week old mice. RNA was extracted using a modified TRIzol protocol with isopropanol precipitation at −20° C. overnight. This RNA was reverse transcribed to cDNA using a High Capacity cDNA Reverse Transcription Kit with RNase Inhibitor (ThermoFisher; Carlsbad, Calif.), with miRNA-specific Megaplex RT Primers, Rodent Pools Set version 3.0 (ThermoFisher; Carlsbad, Calif.). Levels of each of the miRNAs were profiled in the discovery set using TAQMAN Array Rodent MiRNA A+B Cards Set v3.0 (ThermoFisher; Carlsbad, Calif.).
In the discovery set experiments, levels of each miRNA were quantified in TaqMan low-density arrays using ThermoFisher Cloud software with the Relative Quantification Application (ThermoFisher; Carlsbad, Calif.) tool. Data was analyzed by ANOVA with post-hoc comparison of each group to the mdx vehicle-treated group. […] A P-value of P≤0.05 was set as the significance threshold, without adjustment for multiple comparisons. To reduce false-positive discovery in this setting, an evidence-based approach was used to identify efficacy associated miRNAs where 1) results from the multiple groups were cross-referenced, and 2) all candidate miRNAs identified in this discovery set were then assayed in a separate validation set of mice. For the validation set experiments, levels of each individual miRNA were assayed in samples from a second, independent preclinical trial in adult mdx mice. Data from individual TaqMan Assays was quantified using QuantStudio Real-Time PCR version 1.3 software (Applied Biosystems; Foster City, Calif.). The levels of all miRNAs were normalized to the geometric mean of multiple control genes (60, 70). Comparison of groups was made by ANOVA with Holm-Sidak post-hoc test comparing each group to mdx vehicle.
To visualize behavior of miRNAs within individual mice for each group, heat map images were generated. Heat maps were generated using Rq values of TLDA array data exported from the Relative Quantification Application of the ThermoFisher Cloud software (ThermoFisher; Carlsbad, Calif.) tool. Heat maps of miRNA expression were produced using Hierarchical Clustering Explorer Version 3.5 (at www.cs.umd.edu/hcil/multi-cluster/) produced by the Human Computer Interaction Laboratory (University of Maryland; College Park, Md.).
To examine miRNA expression TaqMan low density qPCR array cards were used to profile approximately 750 miRNAs within diaphragm muscle from a discovery set of mice. Samples for this experiment came from a trial that utilized a prophylactic approach (23). Briefly, mdx mice undergo a stage of peak severity characterized by widespread inflammation and necrosis from approximately 3-8 weeks of age, followed by a recovery stage where mice show milder phenotypes (25). […]

## C[C@]12C=CC(=O)C=C1CC[C@@H]1[C@@H]2[C@@H](O)C[C@@]2(C)[C@H]1CC[C@]2(O)C(=O)CO [prednisolone]
  Rq mmu-miR-214-002306: 0.898
  Rq mmu-miR-215-001200: 0.792
  Rq mmu-miR-218-000521: 0.615
  Rq mmu-miR-221-000524: 0.687
  Rq mmu-miR-222-002276: 0.666
  Rq mmu-miR-223-002295: 0.804
  Rq mmu-miR-296-5p-000527: 1.035
  Rq mmu-miR-301a-000528: 0.687
  Rq mmu-miR-301b-002600: 0.862
  Rq mmu-miR-322-001076: 0.67
  Rq mmu-miR-324-3p-002509: 0.713
  Rq mmu-miR-324-5p-000539: 0.859
  Rq mmu-miR-328-000543: 0.888
  Rq mmu-miR-335-3p-002185: 1.354
  Rq mmu-miR-335-5p-000546: 0.756
  Rq mmu-miR-337-3p-002532: 0.853
  Rq mmu-miR-338-3p-002252: 0.469
  Rq mmu-miR-339-5p-002257: 0.652
  Rq mmu-miR-340-3p-002259: 0.581
  Rq mmu-miR-340-5p-002258: 0.602
  Rq mmu-miR-342-3p-002260: 0.407
  Rq mmu-miR-342-5p-002527: 0.529
  Rq mmu-miR-345-5p-002528: 0.713
  Rq mmu-miR-350-002530: 0.796
  Rq mmu-miR-362-3p-002616: 0.936
  Rq mmu-miR-362-5p-002614: 1.241
  Rq mmu-miR-369-3p-000557: 1.192
  Rq mmu-miR-369-5p-001021: 1.211
  Rq mmu-miR-370-002275: 1.975
  Rq mmu-miR-376a#-002482: 1.351
  Rq mmu-miR-376a-001069: 1.484
  Rq mmu-miR-376b#-002451: 1.084
  Rq mmu-miR-376b-002452: 1.602
  Rq mmu-miR-376c-002450: 0.966
  Rq mmu-miR-379-001138: 1.085
  Rq mmu-miR-380-5p-002601: 1.287
  Rq mmu-miR-381-000571: 1.359
  Rq mmu-miR-382-000572: 1.017
  Rq mmu-miR-383-001767: 0.551
  Rq mmu-miR-384-5p-002602: 0.618
  Rq mmu-miR-409-3p-002332: 1.906
  Rq mmu-miR-410-001274: 1.676
  Rq mmu-miR-411-001610: 1.171
  Rq mmu-miR-431-001979: 1.819
  Rq mmu-miR-433-001028: 2.288
  Rq mmu-miR-434-5p-002581: 1.271
  Rq mmu-miR-450a-5p-002303: 1.051
  Rq mmu-miR-455-002455: 0.612
  Rq mmu-miR-467F-002886: 1.346
  Rq mmu-miR-467a-002587: 0.751
  Rq mmu-miR-467c-002517: 0.992
  Rq mmu-miR-483#-002560: 1.367
  Rq mmu-miR-486-001278: 0.917
  Rq mmu-miR-487b-001285: 1.43
  Rq mmu-miR-489-001302: 0.792
  Rq mmu-miR-491-001630: 0.776
  Rq mmu-miR-493-002519: 2.641
  Rq mmu-miR-494-002365: 1.025
  Rq mmu-miR-495-001663: 1.448
  Rq mmu-miR-497-001346: 0.482
  Rq mmu-miR-500-002606: 0.935
  Rq mmu-miR-501-3p-001651: 0.97
  Rq mmu-miR-503-002456: 0.923
  Rq mmu-miR-511-002549: 0.48
  Rq mmu-miR-532-3p-002355: 1.067
  Rq mmu-miR-532-5p-001518: 1.087
  Rq mmu-miR-540-3p-001310: 0.908
  Rq mmu-miR-541-002562: 1.165
  Rq mmu-miR-542-3p-001284: 1.123
  Rq mmu-miR-542-5p-002563: 0.96
  Rq mmu-miR-543-001298: 2.644
  Rq mmu-miR-543-002376: 1.81
  Rq mmu-miR-544-002550: 1.001
  Rq mmu-miR-574-3p-002349: 0.667
  Rq mmu-miR-652-002352: 0.626
  Rq mmu-miR-665-002607: 1.683
  Rq mmu-miR-669a-001683: 0.678
  Rq mmu-miR-673-3p-002449: 1.562
  Rq mmu-miR-673-001954: 2.031
  Rq mmu-miR-674#-001956: 0.857
  Rq mmu-miR-674-002021: 0.846
  Rq mmu-miR-675-3p-001941: 1.258
  Rq mmu-miR-682-001666: 0.702
  Rq mmu-miR-690-001677: 0.744
  Rq mmu-miR-706-001641: 0.75
  Rq mmu-miR-708-002341: 0.636
  Rq mmu-miR-720-001629: 0.905
  Rq mmu-miR-802-002029: 0.245
  Rq mmu-miR-805-002045: 1.066
  Rq mmu-miR-1274a-121150_mat: 1.138
  Rq mmu-miR-1941-3p-121130_mat: 2.166
  Rq mmu-miR-1943-121174_mat: 0.831
  Rq mmu-miR-1944-121189_mat: 0.877
  Rq mmu-miR-2146-241082_mat: 1.113
  Rq mmu-miR-30d-000420: 0.701
  Rq rno-miR-1-002064: 0.911
  Rq rno-miR-7#-001338: 0.751
  Rq rno-miR-7a#-002062: 0.863
  Rq rno-miR-20b-001326: 0.491
  Rq rno-miR-29c#-001818: 0.826
  Rq rno-miR-204#-002076: 0.729
  Rq rno-miR-224-000599: 1.144
  Rq rno-miR-345-3p-002061: 0.859
  Rq rno-miR-351-002063: 1.366
  Rq rno-miR-379#-002081: 1.563
  Rq rno-miR-381-001322: 1.107
  Rq rno-miR-489-001353: 0.626
  Rq rno-miR-664-001323: 0.638
